Measurements as given in publication PMC11566429 (Genes and Environment, 2024).
“Also recorded” adds a separate entry of the source. Where two headings read alike, the source gives them in different places.

Tests used:
[1] = system: TA100, TA1535, TA98, TA1537, and WP2uvrA; experiment: Ames test (preincubation method), five standard strains, overall judgement; settings: for Ames test result (in words, text): presence and absence of S9 mix; for Ames test: presence and absence of rat liver S9 mix
Method: The S9 mix (0.5 mL) consisted of 0.05 mL of the S9 fraction and 0.45 mL of a cofactor solution (Cofactor-1®; Oriental Yeast Co., Ltd.), and contained 8 mM MgCl2, 33 mM KCl, 5 mM glucose-6-phosphate, 4 mM NADPH, 4 mM NADH and 100 mM sodium phosphate (pH 7.4).
Four strains of Salmonella typhimurium, TA100, TA1535, TA98, and TA1537 and one strain of Escherichia coli, WP2uvrA were used.
Ames test was conducted using the preincubation method. […] For the tests carried out in the absence of S9 mix, 0.1 mL of the negative control (vehicle), test chemical solution at various concentrations, or positive control solution was added to a test tube, to which 0.5 mL of 100 mM sodium phosphate buffer (pH 7.4) and 0.1 mL of bacterial culture were added. For the tests carried out in the presence of the S9 mix, the S9 mix was added instead of the phosphate buffer. After mixing, the test tubes were preincubated at 37 °C for 20 min in a shaking water bath. After completion, the treatment mixture was immediately added and mixed with 2 mL of 0.05 mM L-histidine/0.05 mM biotin/0.05 mM L-tryptophan molten top agar and the content was poured onto a plate of minimal-glucose agar medium (Tesmedia®, Oriental Yeast). The plates were incubated at 37 °C for approximately 48 h and the revertant colonies that appeared were counted. The sign of the bacterial background lawn was examined as an indicator of cytotoxicity. In addition, the presence or absence of precipitates from the test chemicals was evaluated.
Multiple tests (dose-finding, main, or confirmatory tests) were conducted. The dose-finding test for almost all the test chemicals was conducted with TA100 in the presence and absence of the S9 mix in a single plate per dose. The main test was conducted in duplicate with the five strains in the presence and absence of the S9 mix. […] Dimethyl sulfoxide (DMSO) was used as a negative control (vehicle).
Mutagenicity was evaluated according to the so-called “two-fold” rule for TA100, TA98, and WP2uvrA, or “three-fold” rule for TA1535 and TA1537 [19]. […] Historical negative control counts were also considered during the evaluation.

[2] = system: TA100; experiment: Ames test, mutagenic activity in TA100; assay type: cell-based, Salmonella typhimurium; settings: maximum mutagenic activity
Excerpt: (§1) The maximum mutagenic activity (rev/mg) was used as an indicator of the magnitude of mutagenicity among those calculated according to the following equation from each representative experiment (main test or confirmatory test) for chemicals that were judged positive: Mutagenic activity (rev/mg) = (number of revertant colonies at each dose—number of revertant colonies for the negative control) / dose (mg).

[3] = system: TA98; experiment: Ames test, mutagenic activity in TA98; assay type: cell-based, Salmonella typhimurium; settings: maximum mutagenic activity
Excerpt: as §1

[4] = system: TA100, TA98; settings: cited from earlier work
[5] = system: TA100, TA1535, TA98, TA1537, TA97; settings: TA100, TA1535, TA98, TA1537, TA97 (± S9) ref 16; cited from earlier work
[6] = system: TA1537; assay type: cell-based, Salmonella typhimurium; settings: TA1537 -S9, maximum mutagenic activity
Excerpt: as §1

[7] = system: WP2uvrA; experiment: Ames test, mutagenic activity in WP2uvrA; assay type: cell-based, Escherichia coli; settings: maximum mutagenic activity
Excerpt: as §1

[8] = system: TA100, TA1535, TA98, TA1537, WP2uvrA; settings: TA100, TA1535, TA98, TA1537, WP2uvrA (± S9) ref 9; cited from earlier work
[9] = system: TA100, TA98, TA102; settings: TA100, TA98, TA102 (± S9) ref 7; cited from earlier work
[10] = system: TA100, TA1535, TA98, TA1537, TA1538; settings: presence or absence of S9 mix not clearly indicated ref 7; cited from earlier work

SMILES: c1cnc2cccnc2c1 [1,5-Naphthyridine]
- Ames test result (in words, text) [1]: only mutagenic in TA100; also recorded: mutagenic only in the presence of the S9 mix
- Ames test ([1]; quinoline analogues): ++ ("mutagenic (100-1000 rev/mg)" in Ames test)
- Tester strains showing positive (mutagenic activity in rev/mg) ([2]; TA100 +S9): TA100 +S9 (419) rev/mg
- Tester strains showing positive (mutagenic activity in rev/mg) ([2]; TA100 +S9, listed as 1,5-naphthyridine): 419 rev/mg

SMILES: c1cnc2ccncc2c1 [1,6-Naphthyridine]
- Ames test result (in words, text) [1]: not mutagenic

SMILES: c1cnc2cnccc2c1 [1,7-Naphthyridine]
- Ames test result (in words, text) [1]: mutagenic in both TA100 and TA98
- Ames test result (in words, text) ([1]; listed as 1,7-naphthyridine): mutagenic both in the presence and absence of the S9 mix
- Ames test ([1]; quinoline analogues): ++ ("mutagenic (100-1000 rev/mg)" in Ames test)
- Tester strains showing positive (mutagenic activity in rev/mg) ([2]; TA100 +S9): 255 rev/mg
- Tester strains showing positive (mutagenic activity in rev/mg) ([2]; TA100 -S9): 40 rev/mg
- Tester strains showing positive (mutagenic activity in rev/mg) ([3]; TA98 +S9): 24 rev/mg
- Tester strains showing positive (mutagenic activity in rev/mg) ([3]; TA98 -S9): 12 rev/mg

SMILES: c1cnc2ncccc2c1 [1,8-Naphthyridine]
- Ames test result (in words, text) [1]: only mutagenic in TA100; also recorded: mutagenic only in the presence of the S9 mix
- Ames test ([1]; quinoline analogues): ++ ("mutagenic (100-1000 rev/mg)" in Ames test)
- Tester strains showing positive (mutagenic activity in rev/mg) ([2]; TA100 +S9): TA100 +S9 (170) rev/mg
- Tester strains showing positive (mutagenic activity in rev/mg) ([2]; TA100 +S9, listed as 1,8-naphthyridine): 170 rev/mg

SMILES: c1cc2cnccc2cn1 [2,6-Naphthyridine]
- Ames test result (in words, text) [1]: non-mutagenic

SMILES: c1cc2ccncc2cn1 [2,7-Naphthyridine]
- Ames test result (in words, text) [1]: non-mutagenic

SMILES: c1cnc2cc[nH]c2c1 [4-Azaindole, 1H-Pyrrolo[3,2-b]pyridine]
- Ames test ([1]; indole analogues): + ("mutagenic (< 100 revertants/mg)" in Ames test)
- Ames test result (in words, text) [1]: mutagenic in the absence of S9 mix with TA1537

SMILES: c1ncc2[nH]ccc2n1 [5H-Pyrrolo[3,2-d]pyrimidine]
- Ames test result (in words, text) [1]: non-mutagenic

SMILES: c1ccc2[nH]cnc2c1 [Benzimidazole]
- Ames test result (in words, text) [1]: not mutagenic
- Ames test result ([4]; TA100, TA98 (-S9) ref 14): Non-mutagenic
- Ames test result [5]: Non-mutagenic

SMILES: c1ccc2nnccc2c1 [Cinnoline]
- Ames test result (in words, text) [1]: mutagenic in TA1537; also recorded: mutagenic only in the absence of the S9 mix
- Ames test result (in words, text) ([1]; listed as cinnoline): mutagenic in the absence of S9 mix with TA1537
- Ames test ([1]; quinoline analogues): + ("mutagenic (< 100 revertants/mg)" in Ames test)
- Tester strains showing positive (mutagenic activity in rev/mg) [6]: TA1537 -S9 (13) rev/mg
- Tester strains showing positive (mutagenic activity in rev/mg) ([6]; listed as cinnoline): 13 rev/mg

SMILES: c1ccc2[nH]ncc2c1 [Indazole]
- Ames test ([1]; indole analogues): + ("mutagenic (< 100 revertants/mg)" in Ames test)
- Ames test result (in words, text) [1]: mutagenic in the presence and absence of S9 mix with WP2uvrA
- Tester strains showing positive (mutagenic activity in rev/mg) ([7]; WP2uvrA +S9): 38 rev/mg
- Tester strains showing positive (mutagenic activity in rev/mg) ([7]; WP2uvrA -S9): 40 rev/mg
- Ames test result ([4]; TA100, TA98 (-S9) ref 14): Non-mutagenic

SMILES: c1ccc2cnccc2c1 [Isoquinoline]
- Ames test result (in words, text) [1]: non-mutagenic
- Ames test result ([4]; TA100, TA98 (± S9) ref 10): Non-mutagenic

SMILES: c1ccc2cnncc2c1 [Phthalazine]
- Ames test result (in words, text) [1]: non-mutagenic
- Ames test result ([4]; TA100, TA98 (± S9) ref 11): Non-mutagenic

SMILES: c1cnc2[nH]ncc2c1 [Pyrazolo[3,4-b]pyridine]
- Ames test result (in words, text) [1]: non-mutagenic

SMILES: c1ccc2ncncc2c1 [Quinazoline]
- Ames test result (in words, text) [1]: non-mutagenic

SMILES: c1ccc2ncccc2c1 [Quinoline]
- Ames test result (in words, text) [1]: only mutagenic in TA100; also recorded: mutagenic only in the presence of the S9 mix
- Ames test ([1]; quinoline analogues): +++ ("mutagenic (>1000 revertants/mg)" in Ames test)
- Ames test result [8]: Mutagenic (+ S9) in TA100, TA98, WP2uvrA

SMILES: c1ccc2nccnc2c1 [Quinoxaline]
- Ames test result (in words, text) [1]: non-mutagenic
- Ames test result [9]: Mutagenic (+ S9) in TA98
- Ames test result [10]: Non-mutagenic
